Test results from ChEMBL document CHEMBL5154646, “Structure-guided optimization of 1H-imidazole-2-carboxylic acid derivatives affording potent VIM-Type metallo-β-lactamase inhibitors” (Eur J Med Chem, 2022).

Experiments:
[1] = Inhibition of bacterial NDM-1 (1 to 270 residues) expressed in Escherichia coli Transetta (DE3) using FC-5 as substrate preincubated with enzyme for 10 mins followed by substrate addition by fluorescence based analysis; set-up: species or system Bacteria
[2] = Inhibition of bacterial recombinant full length N-terminal-TEV-His6-tagged VIM-5 expressed in Escherichia coli Transetta using FC-5 as substrate preincubated with enzyme for 10 mins followed by substrate addition by fluorescence based analysis; set-up: species or system Bacteria
[3] = Inhibition of bacterial recombinant full length C-terminal-TEV-His6-tagged VIM-1 expressed in Escherichia coli Transetta using FC-5 as substrate preincubated with enzyme for 10 mins followed by substrate addition by fluorescence based analysis; set-up: species or system Bacteria
[4] = Inhibition of bacterial VIM-2 (27 to 266 residues) expressed in Escherichia coli Transetta (DE3) using FC-5 as substrate preincubated with enzyme for 10 mins followed by substrate addition by fluorescence based analysis; set-up: species or system Bacteria
[5] = Inhibition of bacterial IMP-1 (1 to 246 residues) expressed in Escherichia coli Transetta (DE3) using FC-5 as substrate preincubated with enzyme for 10 mins followed by substrate addition by fluorescence based analysis; set-up: species or system Bacteria
[6] = test system: Escherichia coli; experiment: Potentiation of meropenem-induced antibacterial activity against Escherichia coli C1542 expressing VIM-2 assessed as meropenem MIC at 10 ug/ml incubated for 18 to 20 hrs by CLSI based broth microtiter dilution method (reference value: 16 ug/ml); type: functional; details: dose 10 µg/ml, time 18-20 hrs
[7] = test system: Escherichia coli; experiment: Potentiation of meropenem-induced antibacterial activity against Escherichia coli C1541 expressing VIM-2 assessed as meropenem MIC at 10 ug/ml incubated for 18 to 20 hrs by CLSI based broth microtiter dilution method (reference value: 16 ug/ml); type: functional; details: dose 10 µg/ml, time 18-20 hrs
[8] = test system: Escherichia coli; experiment: Potentiation of meropenem-induced antibacterial activity against Escherichia coli C1541 expressing IMP-1 assessed as fold reduction in meropenem MIC at 10 ug/ml incubated for 18 to 20 hrs by CLSI based broth microtiter dilution method; type: functional; details: dose 10 µg/ml; time 18-20 hrs
[9] = test system: Escherichia coli; experiment: Potentiation of meropenem-induced antibacterial activity against Escherichia coli C1542 expressing VIM-2 assessed as fold reduction in meropenem MIC at 10 ug/ml incubated for 18 to 20 hrs by CLSI based broth microtiter dilution method; type: functional; details: dose 10 µg/ml; time 18-20 hrs
[10] = test system: Escherichia coli; experiment: Potentiation of meropenem-induced antibacterial activity against Escherichia coli C1541 expressing VIM-2 assessed as fold reduction in meropenem MIC at 10 ug/ml incubated for 18 to 20 hrs by CLSI based broth microtiter dilution method; type: functional; details: dose 10 µg/ml; time 18-20 hrs
[11] = test system: Escherichia coli; experiment: Potentiation of meropenem-induced antibacterial activity against Escherichia coli C1541 expressing IMP-1 assessed as meropenem MIC at 10 ug/ml incubated for 18 to 20 hrs by broth microtiter dilution method (reference value: 32 ug/ml); type: functional; details: dose 10 µg/ml, time 18-20 hrs

Row | Structure (SMILES) | IC50 [1] [µM] | IC50 [2] [µM] | IC50 [3] [µM] | IC50 [4] [µM] | IC50 [5] [µM] | MIC [6] [µg/mL] | MIC [7] [µg/mL] | fold change (FC) [8] | fold change (FC) [9] | fold change (FC) [10] | MIC [11] [µg/mL]
1 | Cn1cc(Cn2ccnc2C(=O)O)cn1 | > 300 | 83.9 | > 300 | 33.5 | > 300 | – | – | – | – | – | –
2 | O=C(O)c1nccn1Cc1ccccn1 | > 300 | > 300 | > 300 | 5.54 | > 300 | – | – | – | – | – | –
3 | O=C(O)c1nccn1Cc1cccc([N+](=O)[O-])c1 | > 300 | 18.9 | > 300 | 3.58 | > 300 | – | – | – | – | – | –
4 | O=C(O)c1ncc(-c2ccccc2)n1Cc1ccccc1 | 59.2 | 0.33 | 4.31 | 0.015 | > 300 | 1 | 0.5 | 1 | 16 | 32 | 32
5 | CS(=O)(=O)Cn1ccnc1C(=O)O | > 300 | 249 | > 300 | 33.6 | > 300 | – | – | – | – | – | –
6 | Nn1ccnc1C(=O)O | > 300 | 30.6 | > 300 | > 300 | > 300 | – | – | – | – | – | –
7 | NC(=O)Cn1ccnc1C(=O)O | > 300 | > 300 | > 300 | 118 | > 300 | – | – | – | – | – | –
8 | N#CCCCn1ccnc1C(=O)O | > 300 | 15.6 | 47.1 | 11.8 | 65.6 | – | – | – | – | – | –
9 | NCCCn1ccnc1C(=O)O | > 300 | 68.2 | > 300 | 42.9 | > 300 | – | – | – | – | – | –
10 | O=C(O)c1nccn1Cc1ccc(F)c(F)c1 | > 300 | 14.9 | > 300 | 15.8 | > 300 | – | – | – | – | – | –
11 | O=C(O)c1nccn1Cc1ccc(C(F)(F)F)cc1 | > 300 | 0.28 | 17.5 | 0.56 | 53.7 | – | – | – | – | – | –
12 | O=C(O)c1nc(C2CC2)cn1Cc1ccccc1 | > 300 | > 300 | > 300 | 11.5 | 17.8 | – | – | – | – | – | –
13 | O=C(O)c1nccn1CCn1ccnn1 | > 300 | 47.3 | > 300 | 6.68 | > 300 | – | – | – | – | – | –
14 | Nc1ccc(Cn2ccnc2C(=O)O)cc1 | > 300 | > 300 | > 300 | 30.2 | > 300 | – | – | – | – | – | –
15 | O=C(O)c1nccn1C1CNC1 | > 300 | 104 | 26 | 68.1 | > 300 | – | – | – | – | – | –
16 | O=C(O)c1nccn1Cc1ccc(Cl)s1 | 121 | 9.02 | > 300 | 3.23 | 111 | – | – | – | – | – | –
17 | CC(C(=O)O)n1ccnc1C(=O)O (stereo unspecified) | > 300 | 32.5 | > 300 | 52.4 | > 300 | – | – | – | – | – | –
18 | Cc1ccc(Cn2ccnc2C(=O)O)cc1 | > 300 | 139 | > 300 | 3.47 | > 300 | – | – | – | – | – | –
19 | Cn1ccnc1C(=O)O | > 300 | > 300 | 227 | > 300 | > 300 | – | – | – | – | – | –
20 | O=C(O)c1nccn1Cc1ccsc1 | > 300 | 30.3 | 132 | 5.07 | > 300 | – | – | – | – | – | –
21 | O=C(O)c1nc(-c2ccccc2)cn1Cc1ccccc1 | > 300 | 48.3 | > 300 | 79.1 | 9.29 | – | – | – | – | – | –
22 | O=C(O)c1nccn1Cc1ccc(Cl)c(Cl)c1 | 16.4 | 0.052 | 2.83 | 0.014 | 9.25 | – | – | – | – | – | –
23 | O=C(O)c1nccn1Cc1ccoc1 | > 300 | > 300 | > 300 | 42.7 | > 300 | – | – | – | – | – | –
24 | O=C(O)c1nccn1Cc1ccco1 | > 300 | 21 | 11.7 | 1.55 | 10.3 | – | – | – | – | – | –
25 | O=C(O)c1nccn1C1CCCC1 | > 300 | > 300 | 76.9 | 70.4 | > 300 | – | – | – | – | – | –
26 | CC(C)Cn1ccnc1C(=O)O | > 300 | 7.02 | 22.9 | 1.1 | > 300 | – | – | – | – | – | –
27 | CC(O)Cn1ccnc1C(=O)O (stereo unspecified) | > 300 | > 300 | > 300 | > 300 | > 300 | – | – | – | – | – | –
